# Patent US20230357179A1, “RAF KINASE INHIBITORS AND METHODS OF USE THEREOF” (Deciphera Pharmaceuticals, LLC, priority 2021, published 2023)
# Biological target: T1, B-Raf kinase (Homo sapiens, UniProt P15056)
# T1 construct: GST (N); purchased Sigma
# Assay: Biochemical assay for B-Raf.1 (coupled pyruvate kinase/lactate dehydrogenase)
# Settings: read-out: BRAF.1 IC50
# Method in brief: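 NADH oxidation followed at 340 nm in a pyruvate kinase/lactate dehydrogenase-coupled assay with 0.13 nM B-Raf, 30.1 nM MEK substrate, 1 mM ATP, pH 7.5 Tris buffer, 1% DMSO. Monitored 6 h at 30 °C; rate taken from 4–5 h. IC50 from four-parameter sigmoidal fit.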
# T1 sequence (P15056 416-766): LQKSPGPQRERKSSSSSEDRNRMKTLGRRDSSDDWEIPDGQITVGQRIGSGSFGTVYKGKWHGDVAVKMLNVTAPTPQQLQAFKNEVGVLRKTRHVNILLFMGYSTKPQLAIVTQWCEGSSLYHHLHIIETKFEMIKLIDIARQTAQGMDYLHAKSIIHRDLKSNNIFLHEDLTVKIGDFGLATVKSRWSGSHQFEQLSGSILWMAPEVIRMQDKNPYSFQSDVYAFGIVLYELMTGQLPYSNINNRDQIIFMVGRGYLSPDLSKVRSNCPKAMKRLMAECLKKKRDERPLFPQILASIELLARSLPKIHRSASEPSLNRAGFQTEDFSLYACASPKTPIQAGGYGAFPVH
row,SMILES,IC50
1,COC(C)(C)CCNC(=O)Nc1cnc(C)c(-c2nccc(-c3ccnc(NC(=O)C4CC4)c3)n2)c1 [Example 82],100 to 500 nM
2,COC(C)(C)CCNC(=O)Nc1cc(-c2nccc(-c3ccnc(NC(=O)C4CC4)c3)n2)c(C)cc1F [Example 83],≤ 100 nM
3,COC1(CCNC(=O)Nc2cnc(C)c(-c3cccc(-c4cc(NC(=O)C5CC5)ncn4)c3)c2)CC1 [Example 84],≤ 100 nM
4,COC(=O)Nc1cc(-c2cnnc(-c3cc(NC(=O)N4CCC(CC(F)(F)F)C4)ccc3C)c2)ccn1 (centres unmarked) [Example 186],≤ 100 nM
5,Cc1ccc(NC(=O)N2CCC(CC(F)(F)F)C2)cc1-c1cncc(-c2cc(NC(=O)C3CC3)ncn2)c1 (centres unmarked) [Example 194],≤ 100 nM
6,Cc1ccc(NC(=O)N2CC[C@H](C(F)(F)F)C2)cc1-c1cncc(-c2cc(NC(=O)C3CC3)ncn2)c1 [Example 195],≤ 100 nM
7,Cc1ccc(NC(=O)N2CC[C@@H](C(F)(F)F)C2)cc1-c1cncc(-c2ccnc(NC(=O)C3CC3)c2)c1 [Example 196],≤ 100 nM
8,Cc1ccc(NC(=O)N2CC[C@H](C(F)(F)F)C2)cc1-c1cncc(-c2ccnc(NC(=O)C3CC3)c2)c1 [Example 197],≤ 100 nM
9,Cc1ccc(NC(=O)N2CC[C@H](C(F)(F)F)C2)cc1-c1cccc(-c2cc(NC(=O)C3CC3)ncn2)c1 [Example 200],≤ 100 nM
10,Cc1ccc(NC(=O)N2CC[C@@H](C(F)(F)F)C2)cc1-c1cccc(-c2cc(NC(=O)C3CC3)ncn2)c1 [Example 201],≤ 100 nM
11,COC(=O)Nc1cc(-c2cncc(-c3cc(NC(=O)N4CCCCCC4)ccc3C)c2)ccn1 [Example 202],500 to 1000 nM
12,COC(=O)Nc1cc(-c2cnnc(-c3cc(NC(=O)N4CCC(C(C)(C)O)C4)ccc3C)c2)ccn1 (centres unmarked) [Example 206],500 to 1000 nM
13,Cc1ccc(NC(=O)N2CCC(CC(F)(F)F)C2)cc1-c1cncc(-c2cc(N)ncn2)c1 (centres unmarked) [Example 207],100 to 500 nM
14,COC(=O)Nc1cc(-c2cncc(-c3cc(NC(=O)N4CCCCC4)ccc3C)c2)ccn1 [Example 208],> 1000 nM
15,Cc1ccc(NC(=O)N2CCC(F)(F)C2)cc1-c1cncc(-c2cc(NC(=O)C3CC3)ncn2)c1 [Example 209],≤ 100 nM
16,Cc1ccc(NC(=O)N2CC[C@@H](C(F)(F)F)C2)cc1-c1cncc(-c2cc(NC(=O)C3CC3)ncn2)c1 [Example 210],≤ 100 nM

# Tested on: H2405 cells
# Assay: H2405 cell proliferation assay (1), resazurin, 96-well
# Type: cell-based
# Settings: Homo sapiens, NCI-H2405, inhibition of cell proliferation
# Method in brief: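 This is a resazurin viability readout (excitation 540 nm, emission 600 nm) taken 5-6 h after adding 440 μM resazurin solution, giving IC50 values.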
row,SMILES,IC50
1,COC(C)(C)CCNC(=O)Nc1cnc(C)c(-c2nccc(-c3ccnc(NC(=O)C4CC4)c3)n2)c1 [Example 82],1000 to 10000 nM
2,COC(C)(C)CCNC(=O)Nc1cc(-c2nccc(-c3ccnc(NC(=O)C4CC4)c3)n2)c(C)cc1F [Example 83],100 to 500 nM
3,COC1(CCNC(=O)Nc2cnc(C)c(-c3cccc(-c4cc(NC(=O)C5CC5)ncn4)c3)c2)CC1 [Example 84],1000 to 10000 nM
4,COC(=O)Nc1cc(-c2cnnc(-c3cc(NC(=O)N4CCC(CC(F)(F)F)C4)ccc3C)c2)ccn1 (centres unmarked) [Example 186],100 to 500 nM
5,Cc1ccc(NC(=O)N2CCC(CC(F)(F)F)C2)cc1-c1cncc(-c2cc(NC(=O)C3CC3)ncn2)c1 (centres unmarked) [Example 194],100 to 500 nM
6,Cc1ccc(NC(=O)N2CC[C@H](C(F)(F)F)C2)cc1-c1cncc(-c2cc(NC(=O)C3CC3)ncn2)c1 [Example 195],100 to 500 nM
7,Cc1ccc(NC(=O)N2CC[C@@H](C(F)(F)F)C2)cc1-c1cncc(-c2ccnc(NC(=O)C3CC3)c2)c1 [Example 196],500 to 1000 nM
8,Cc1ccc(NC(=O)N2CC[C@H](C(F)(F)F)C2)cc1-c1cncc(-c2ccnc(NC(=O)C3CC3)c2)c1 [Example 197],100 to 500 nM
9,Cc1ccc(NC(=O)N2CC[C@H](C(F)(F)F)C2)cc1-c1cccc(-c2cc(NC(=O)C3CC3)ncn2)c1 [Example 200],100 to 500 nM
10,Cc1ccc(NC(=O)N2CC[C@@H](C(F)(F)F)C2)cc1-c1cccc(-c2cc(NC(=O)C3CC3)ncn2)c1 [Example 201],100 to 500 nM
11,COC(=O)Nc1cc(-c2cncc(-c3cc(NC(=O)N4CCCCCC4)ccc3C)c2)ccn1 [Example 202],1000 to 10000 nM
12,COC(=O)Nc1cc(-c2cncc(-c3cc(NC(=O)N4CCCCC4)ccc3C)c2)ccn1 [Example 208],500 to 1000 nM
13,Cc1ccc(NC(=O)N2CCC(F)(F)C2)cc1-c1cncc(-c2cc(NC(=O)C3CC3)ncn2)c1 [Example 209],1000 to 10000 nM
14,Cc1ccc(NC(=O)N2CC[C@@H](C(F)(F)F)C2)cc1-c1cncc(-c2cc(NC(=O)C3CC3)ncn2)c1 [Example 210],100 to 500 nM

# Tested on: A375 cells
# Assay: A375 cell proliferation assay (1), resazurin, 96-well
# Type: cell-based
# Settings: Homo sapiens, A-375, inhibition of cell proliferation
# Method in brief: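 Viability was read by resazurin fluorescence at 540 nm excitation and 600 nm emission, using a 440 μM solution added for 5–6 h at the end of culture. IC50 came from the curve fit.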
row,SMILES,IC50
1,COC(C)(C)CCNC(=O)Nc1cnc(C)c(-c2nccc(-c3ccnc(NC(=O)C4CC4)c3)n2)c1 [Example 82],1000 to 10000 nM
2,COC(C)(C)CCNC(=O)Nc1cc(-c2nccc(-c3ccnc(NC(=O)C4CC4)c3)n2)c(C)cc1F [Example 83],1000 to 10000 nM
3,COC1(CCNC(=O)Nc2cnc(C)c(-c3cccc(-c4cc(NC(=O)C5CC5)ncn4)c3)c2)CC1 [Example 84],1000 to 10000 nM
4,COC(=O)Nc1cc(-c2cnnc(-c3cc(NC(=O)N4CCC(CC(F)(F)F)C4)ccc3C)c2)ccn1 (centres unmarked) [Example 186],1000 to 10000 nM
5,Cc1ccc(NC(=O)N2CCC(CC(F)(F)F)C2)cc1-c1cncc(-c2cc(NC(=O)C3CC3)ncn2)c1 (centres unmarked) [Example 194],≤ 100 nM
6,Cc1ccc(NC(=O)N2CC[C@H](C(F)(F)F)C2)cc1-c1cncc(-c2cc(NC(=O)C3CC3)ncn2)c1 [Example 195],100 to 500 nM
7,Cc1ccc(NC(=O)N2CC[C@@H](C(F)(F)F)C2)cc1-c1cncc(-c2ccnc(NC(=O)C3CC3)c2)c1 [Example 196],1000 to 10000 nM
8,Cc1ccc(NC(=O)N2CC[C@H](C(F)(F)F)C2)cc1-c1cncc(-c2ccnc(NC(=O)C3CC3)c2)c1 [Example 197],100 to 500 nM
9,Cc1ccc(NC(=O)N2CC[C@H](C(F)(F)F)C2)cc1-c1cccc(-c2cc(NC(=O)C3CC3)ncn2)c1 [Example 200],100 to 500 nM
10,Cc1ccc(NC(=O)N2CC[C@@H](C(F)(F)F)C2)cc1-c1cccc(-c2cc(NC(=O)C3CC3)ncn2)c1 [Example 201],500 to 1000 nM
11,COC(=O)Nc1cc(-c2cncc(-c3cc(NC(=O)N4CCCCCC4)ccc3C)c2)ccn1 [Example 202],1000 to 10000 nM
12,COC(=O)Nc1cc(-c2cnnc(-c3cc(NC(=O)N4CCC(C(C)(C)O)C4)ccc3C)c2)ccn1 (centres unmarked) [Example 206],1000 to 10000 nM
13,Cc1ccc(NC(=O)N2CCC(CC(F)(F)F)C2)cc1-c1cncc(-c2cc(N)ncn2)c1 (centres unmarked) [Example 207],1000 to 10000 nM
14,COC(=O)Nc1cc(-c2cncc(-c3cc(NC(=O)N4CCCCC4)ccc3C)c2)ccn1 [Example 208],500 to 1000 nM
15,Cc1ccc(NC(=O)N2CCC(F)(F)C2)cc1-c1cncc(-c2cc(NC(=O)C3CC3)ncn2)c1 [Example 209],1000 to 10000 nM
16,Cc1ccc(NC(=O)N2CC[C@@H](C(F)(F)F)C2)cc1-c1cncc(-c2cc(NC(=O)C3CC3)ncn2)c1 [Example 210],100 to 500 nM

# Tested on: WM3928 cells
# Assay: WM3928 cell proliferation assay (1), resazurin, 96-well
# Type: cell-based
# Settings: inhibition of cell proliferation
# Protocol: WM3928 Cell Proliferation Assay (1)
# WM3928 cells (#WM3928-01-0001) are obtained from Rockland Immunochemicals Inc (Gilbertsville, PA). Briefly, cells were grown in MCDB 153 medium (Sigma, #M7403, St. Louis, MO) supplemented with 20% Leibovitz's L-15 (ThermoFisher #11415-064, Waltham, MA), 2% heat inactivated fetal bovine serum (ThermoFisher, #A3840001, Waltham, MA), 5 μg/mL Insulin (Bovine Pancreas) (Sigma, #I0516, St. Louis, MO), 1.68 mM Calcium Chloride (Sigma, #C-34006, St. Louis, MO) and 1% Penicillin/Streptomycin/L-Glutamine (ThermoFisher #10378016, Waltham, MA) at 37° C., 5% CO2, and 95% humidity. Cells are expanded until reaching 70-95% confluency at which point they are subcultured or harvested for assay use. A serial dilution of test compound is dispensed into a 96-well black clear bottom plate in triplicate. Three thousand cells are added per well in 200 μL complete growth medium in the 96-well plate. Plates are incubated for 67-72 hours at 37° C., 5% CO2, and 95% humidity. At the end of the incubation, 40 μL of a 440 μM solution of resazurin (Sigma, #199303, St. Louis, MO) in PBS is added to each well of the plate and plates are incubated for an additional 6-7 hours at 37° C., 5% CO2, and 95% humidity. Plates are read on a Synergy2 or equivalent reader (Biotek, Winooski VT) using an excitation of 540 nm and an emission of 600 nm. Data is analyzed using Prism software (GraphPad, San Diego, CA) to calculate IC50 values.
row,SMILES,IC50
1,COC(C)(C)CCNC(=O)Nc1cnc(C)c(-c2nccc(-c3ccnc(NC(=O)C4CC4)c3)n2)c1 [Example 82],1000 to 10000 nM
2,COC(C)(C)CCNC(=O)Nc1cc(-c2nccc(-c3ccnc(NC(=O)C4CC4)c3)n2)c(C)cc1F [Example 83],100 to 500 nM
3,COC1(CCNC(=O)Nc2cnc(C)c(-c3cccc(-c4cc(NC(=O)C5CC5)ncn4)c3)c2)CC1 [Example 84],500 to 1000 nM
4,COC(=O)Nc1cc(-c2cnnc(-c3cc(NC(=O)N4CCC(CC(F)(F)F)C4)ccc3C)c2)ccn1 (centres unmarked) [Example 186],500 to 1000 nM
5,Cc1ccc(NC(=O)N2CCC(CC(F)(F)F)C2)cc1-c1cncc(-c2cc(NC(=O)C3CC3)ncn2)c1 (centres unmarked) [Example 194],≤ 100 nM
6,Cc1ccc(NC(=O)N2CC[C@H](C(F)(F)F)C2)cc1-c1cncc(-c2cc(NC(=O)C3CC3)ncn2)c1 [Example 195],≤ 100 nM
7,Cc1ccc(NC(=O)N2CC[C@@H](C(F)(F)F)C2)cc1-c1cncc(-c2ccnc(NC(=O)C3CC3)c2)c1 [Example 196],500 to 1000 nM
8,Cc1ccc(NC(=O)N2CC[C@H](C(F)(F)F)C2)cc1-c1cncc(-c2ccnc(NC(=O)C3CC3)c2)c1 [Example 197],100 to 500 nM
9,Cc1ccc(NC(=O)N2CC[C@H](C(F)(F)F)C2)cc1-c1cccc(-c2cc(NC(=O)C3CC3)ncn2)c1 [Example 200],≤ 100 nM
10,Cc1ccc(NC(=O)N2CC[C@@H](C(F)(F)F)C2)cc1-c1cccc(-c2cc(NC(=O)C3CC3)ncn2)c1 [Example 201],100 to 500 nM
11,COC(=O)Nc1cc(-c2cncc(-c3cc(NC(=O)N4CCCCCC4)ccc3C)c2)ccn1 [Example 202],1000 to 10000 nM
12,COC(=O)Nc1cc(-c2cnnc(-c3cc(NC(=O)N4CCC(C(C)(C)O)C4)ccc3C)c2)ccn1 (centres unmarked) [Example 206],1000 to 10000 nM
13,Cc1ccc(NC(=O)N2CCC(CC(F)(F)F)C2)cc1-c1cncc(-c2cc(N)ncn2)c1 (centres unmarked) [Example 207],500 to 1000 nM
14,COC(=O)Nc1cc(-c2cncc(-c3cc(NC(=O)N4CCCCC4)ccc3C)c2)ccn1 [Example 208],500 to 1000 nM
15,Cc1ccc(NC(=O)N2CCC(F)(F)C2)cc1-c1cncc(-c2cc(NC(=O)C3CC3)ncn2)c1 [Example 209],1000 to 10000 nM
16,Cc1ccc(NC(=O)N2CC[C@@H](C(F)(F)F)C2)cc1-c1cncc(-c2cc(NC(=O)C3CC3)ncn2)c1 [Example 210],100 to 500 nM
